In patent US20100190727A1, “USE OF MONOSACCHARIDES AND COMPOSITION THEREFOR” (L'OREAL, priority 2008, published 2010):

What was measured:
[1] = test system: dermal fibroblasts of the reconstructed skin; test: Proliferation of dermal fibroblasts in whole reconstructed skin (propidium iodide nuclei count on frozen sections); format: cell-based, human; conditions: 5 mM, 48 hours of treatment, reconstructed skin versus control skin
From the text: Rhamnose was studied on a model of whole reconstructed skin in order to measure its anti-ageing efficacy on the dermal compartment.
(§1) Briefly, the model of reconstructed skin used is that described by Bell et al. (Bell E. et al., The reconstitution of living skin, J. Invest. Dermatol., 1983, July; 81): it includes a dermal equivalent on which is reconstructed a multistratified epidermis; the dermal equivalent is manufactured from acid-soluble collagen, culture medium containing serum and normal adult human fibroblasts. After 5 days of shrinkage, this equivalent is inoculated with keratinocytes and then cultured for 6 days in immersion and for 7 days in emersion in order to obtain a multistratified and differentiated epidermis having a horny layer.
The reconstructed skin is treated with 5 mM rhamnose for 2 days and 5 days in the culture medium; after the treatment, the reconstructed skins are included in Tissue Tek in order to produce frozen sections 7 μm thick with a cryostat. […] Three frozen sections are prepared at random on each reconstructed skin; on each section, two microscopic fields (25× objective lens) are analysed by fluorescence microscopy and photographed. The dermal fibroblasts are thus counted for each reconstructed skin on six images in total representing the six microscopic fields considered. […]

[2] = test system: type I procollagen; test: Synthesis of procollagen 1 in the dermis of reconstructed skin (indirect immunofluorescence); format: cell-based, human; conditions: for procollagen 1 synthesis: reconstructed skin
From the text: as §1
Conventional detection via indirect immunofluorescence of type I procollagen in the dermis of the reconstructed skin was also performed on other series of frozen sections (anti-procoll 1 antibody (MAB 1912 Millipore)+FTIC-coupled conjugate (112-095-068 Jackson Immunoresearch)). In order to obtain bearings within the cutaneous architecture during the microscopic examination of the sections, the cell nuclei of the keratinocytes and fibroblasts are localized by staining them with propidium iodide, as described above. Three frozen sections are prepared at random on each reconstructed skin and on each section, and two microscopic fields (25× objective lens) are analysed by fluorescence microscopy and photographed. The levels of fluorescence proportional to the amount of type I procollagen are compared between the control skin and the skin treated with rhamnose.

[3] = test system: keratinocytes (HaCat line); test: Proliferation of keratinocytes (HaCat line) in culture medium deficient in growth factors; Cyquant, Nile red and XTT probes; format: cell-based
Protocol: The keratinocytes (HaCat line) are cultured under two conditions: whole defined culture medium (standard condition) and culture medium deficient in growth factors. This deficient medium gives rise to a controlled delay in cell proliferation. Under these conditions, it is then possible to measure the effects of compounds capable of compensating for the deficiency in growth factors of the culture medium and thus of relaunching the cell multiplication and/or of stimulating cell metabolism.
The keratinocyte proliferation is measured by means of three markers on the same cell population: the level of DNA, which is proportional to the number of cells (Cyquant probe), the level of constituent polar lipids of cell membranes (Nile red probe) and the mitochondrial respiration, which reflects the general cell metabolism (XTT probe).

[4] = 1 mM, medium depleted in growth factors, versus untreated control

## C[C@H](O)[C@H](O)[C@@H](O)[C@@H](O)C=O [rhamnose]
[1]
  growth of the dermal fibroblasts: induces stimulation of growth
[2]; 1 mM for 120 hours, reconstructed skin versus control skin
  green fluorescence proportional to the amount of type I procollagen: marked increase in green fluorescence
[2]; 1 mM
  procollagen 1 synthesis: stimulation of procollagen 1 synthesis
[2]; 5 mM
  procollagen 1 synthesis: stimulation of procollagen 1 synthesis
[3]; 500 μM, medium depleted in growth factors
  efficacy on keratinocyte proliferation markers: already show efficacy
[3]; [4]
  level of DNA (Cyquant): significantly increased
  level of polar lipids (Nile red signal): significantly increased
  mitochondrial respiration (XTT signal): significantly increased
[3]; HaCat keratinocytes cultured in medium depleted in growth factors, versus untreated control
  keratinocyte proliferation: activate keratinocyte proliferation
